Results published in ChEMBL document CHEMBL1150751, “Bioactive components of Allamanda schottii” (J Nat Prod, 1988).
Values after ≈ are worked out from the molar mass of the structure shown. Active and inactive are the calls of the source. The rule behind the calls is not given here.

Assays:
[1] = tested on: Artemia; experiment: Toxicity in brine shrimp; type: organism-based; details: in vivo
[2] = tested on: Agrobacterium tumefaciens; experiment: Antitumor activity against Agrobacterium tumefaciens-induced crown gall tumor in potato tubers by potato disk assay; type: functional
[3] = tested on: P388; experiment: Antileukemic activity against mouse P388 cells xenografted in mouse; type: functional
[4] = Cytotoxicity against human 9KB cells; type: functional; details: read-out: ED50 (the source's name)

C/C=C1/C(=O)O[C@@]23C=C[C@H]4[C@@H](C(=O)OC)[C@H](O)O[C@@H](O[C@H]12)[C@H]43 [ALLAMANDIN]
LC50 [1]: 21.3 ppm | inhibition (INH) [2]: 51% | T/C [3]: 145% | EC50 [4]: 2.1 µg/mL (≈ 6.81 µM)

C/C=C1/C(=O)O[C@@]23C=C[C@H]4C[C@H](O)O[C@@H](O[C@H]12)[C@H]43 [ALLAMCIN]
LC50 [1]: > 1000 ppm | inhibition [2]: inactive

C/C=C1\C(=O)O[C@]23C=C[C@@H]4C(C(=O)OC)=CO[C@H](O[C@@H]12)[C@@H]43 [ISOPLUMERICIN]
LC50 [1]: 1.7 ppm | inhibition (INH) [2]: 44% | T/C [3]: 145% | EC50 [4]: 2.7 µg/mL (≈ 9.3 µM)

COc1cc([C@H]2OC[C@H]3[C@@H]2CO[C@H]3c2ccc(O)c(OC)c2)ccc1O [PINORESINOL]
LC50 [1]: 377 ppm | inhibition [2]: inactive | EC50 [4]: 100 µg/mL (≈ 279 µM)

C/C=C1/C(=O)O[C@]23C=C[C@@H]4C(C(=O)OC)=CO[C@H](O[C@@H]12)[C@@H]43 [PLUMERICIN]
LC50 [1]: 1.7 ppm | inhibition (INH) [2]: 44% | EC50 [4]: 2.6 µg/mL (≈ 8.96 µM)

COc1cc2ccc(=O)oc2cc1OC [SCOPARONE]
LC50 [1]: 349 ppm | inhibition [2]: inactive | EC50 [4]: 61 µg/mL (≈ 296 µM)

COc1cc2ccc(=O)oc2cc1O [SCOPOLETIN]
LC50 [1]: 55 ppm | inhibition (INH) [2]: 20% | T/C [3]: 133% | EC50 [4]: 16 µg/mL (≈ 83.3 µM)
